{
  "source": "patent US20220288207A1",
  "about": "“PHOTO INDUCED CONTROL OF PROTEIN DESTRUCTION” (Beth Israel Deaconess Medical Center, Inc., priority 2019, published 2022)",
  "key": {"[1]": {"test": "UV-VIS absorption spectrum", "format": "physicochemical", "settings": "in DMSO", "procedure": "(§1) UV-Vis spectrometry was performed on a NanoDrop-2000 UV-Visible Spectrophotometer. Pomalidomide, opto-pomalidomide, dBET1, opto-dBET1, dALK and opto-dALK were dissolved in DMSO and diluted to indicated concentration, followed by UVA irradiation for indicated duration of time. Then the samples were subjected to UV-Vis spectrometry analysis. Pomalidomide and opto-pomalidomide mixture solutions were made with the indicated ratio. Absorption values at 364 nm were measured to draw standard curve. dBET1 and opto-dBET1 mixture solution were made with the indicated ratios. Absorption values at 340 nm were measured to draw standard curve. dALK and opto-dALK mixture solution were made with indicated ratio. Absorption values at 370 nm were measured to draw standard curve."}, "[2]": {"test": "Uncaging (photolysis) by UVA irradiation in vitro, UV-VIS absorption / UPLC-MS analysis", "format": "physicochemical", "settings": "1 mM, UVA 365 nm, time course", "procedure": "HPLC spectra were acquired using an Agilent 1200 Series system with DAD detector for all the intermediates and Opto-PROTACs below. Chromatography was performed on a 2.1×150 mm Zorbax 300SB-C18 5 μm column with water containing 0.1% formic acid as solvent A and acetonitrile containing 0.1% formic acid as solvent B at a flow rate of 0.4 ml/min. The gradient program was as follows: 1% B (0-1 min), 1-99% B (1-4 min), and 99% B (4-8 min). High-resolution mass spectra (FIRMS) data were acquired in positive ion mode using an Agilent G1969A API-TOF with an electrospray ionization (ESI) source. Nuclear Magnetic Resonance (NMR) spectra were acquired on a Bruker DRX-600 spectrometer with 600 MHz for proton (^1H NMR) and 151 MHz for carbon (^13C NMR); chemical shifts are reported in (δ). Preparative HPLC was performed on Agilent Prep 1200 series with UV detector set to 254 nm. Samples were injected onto a Phenomenex Luna 250×30 mm, 5 μm, C18 column at room temperature. The flow rate was 40 ml/min. A linear gradient was used with 10% of acetonitrile (A) in H2O (with 0.1% TFA) (B) to 100% of acetonitrile (A). HPLC was used to establish the purity of target compounds. All final compounds had >95% purity using the HPLC methods described above.\nas §1"}, "[3]": {"system": "IKZF1/3", "test": "IKZF1/3 degradation, immunoblot of MM1S cells", "format": "cell-based", "procedure": "(§2) MM.1S, MT2, C4-2, NCI-H2228 and NCI-H3122 cells were cultured in RPMI1640 containing 10% fetal bovine serum (FBS), 100 Units of penicillin and 100 μg/ml streptomycin. […] For UVA irradiation, cells were pretreated with opto-PROTACs for 2-4 hours, and then subjected to UVA irradiation for indicated durations.\n(§3) Cells were lysed in EBC lysis buffer (50 mM Tris pH 7.5, 120 mM NaCl, 0.5% NP-40), supplemented with protease inhibitors (cOmplete Mini, Roche) and phosphatase inhibitors (phosphatase inhibitor cocktail set I and II, Calbiochem). The protein concentrations of the lysates were measured using the Bio-Rad protein assay reagent on a Beckman Coulter DU-800 spectrophotometer. The lysates were then resolved by sodium dodecylsulfate-polyacrylamide gel ectrophoresis (SDS-PAGE) and immunoblotted with indicated antibodies. For immunoprecipitation, 1 mg lysates were incubated with the appropriate sepharose beads for 4 h at 4° C. Immuno-complexes were washed four times with NETN lysis buffer (20 mM Tris, pH 8.0, 100 mM NaCl, 1 mM EDTA and 0.5% NP-40) before being resolved by SDS-PAGE and immunoblotted with indicated antibodies."}, "[4]": {"target": "T1, IKZF1 (Homo sapiens, UniProt Q13422+Q96SW2)", "test": "IKZF1 degradation, immunoblot of MT2 cells", "format": "cell-based", "design": "endogenous in cells; host or cells: MT2", "settings": "with UVA irradiation", "procedure": "(§4) Human embryonic kidney 293T (HEK293T) cells and HEK293FT were maintained in Dulbecco's Modified Eagle's Medium (DMEM) containing 10% fetal bovine serum (FBS), 100 Units of penicillin and […] streptomycin. MM.1S, MT2, C4-2, NCI-H2228 and NCI-H3122 cells were cultured in RPMI1640 containing 10% fetal bovine serum (FBS), 100 Units of penicillin and 100 μg/ml streptomycin. 293FT^CRBN+/+, 293FT^CRBN+/+ , MM.1S^CRBN+/+ and MM.1S^CRBN−/− cells were provided Dr. William G. Kaelin (Dana-Farber Cancer Institute). For UVA irradiation, cells were pretreated with opto-PROTACs for 2-4 hours, and then subjected to UVA irradiation for indicated durations.\nas §3, with “Immuno-complexes were washed four times with NETN lysis buffer (20 mM Tris, pH 8.0, 100 mM NaCl, 1 mM EDTA and 0.5% NP-40) before being resolved by SDS-PAGE and immunoblotted with indicated antibodies.” left out"}, "[5]": {"target": "T2, CRBN (Homo sapiens, UniProt Q96SW2)", "T2 construct": "made in house; host or cells: HEK293T", "test": "Competitive binding in vitro pull-down assay (biotin-pomalidomide pulls down Flag-CRBN)", "procedure": "Flag-CRBN was expressed in HEK293T cells lysed in PROTAC buffer B (50 mM Tris pH 7.5, 150 mM NaCl, 0.5% NP-40) supplemented with protease inhibitors (cOmplete Mini, Roche) and phosphatase inhibitors (phosphatase inhibitor cocktail set I and II, Calbiochem). 3mg cell lysis was incubated with 10 μl 10mM biotin-pomalidomide and […] streptavidin beads for 1 h at 4° C. in the absence or presence of pomalidomide or opto-pomalidomide. Then, the beads were washed four times with NETN buffer (20 mM Tris, pH 8.0, 100 mM NaCl, 1 mM EDTA and 0.5% NP-40) before being resolved by SDS-PAGE and immunoblotted with indicated antibodies."}, "[6]": {"target": "T3, CRBN and IKZF1 (Homo sapiens, UniProt Q13422+Q96SW2)", "T3 construct": "expressed in transfected cells; host or cells: HEK293T", "test": "CRBN-IKZF1 interaction, Flag-IP and immunoblot in HEK293T cells", "format": "cell-based", "settings": "10 μM MG132 12 hours", "procedure": "as §2, §3"}, "[7]": {"system": "MM1S cells", "test": "CCK-8 cell viability assay, MM1S cells", "format": "cell-based", "settings": "MM1S cells, UVA irradiation (365 nm) 15 min", "procedure": "as §4\n(§5) Cell in 96-well plates were incubated with 10 ul/well of CCK-8 solution and incubated for 2 hours, followed by the measurement of optical density using a microplate reader with a 450 nm filter (O.D. 450)."}, "[8]": {"system": "MT2 cells", "test": "CCK-8 cell viability assay, MT2 cells", "format": "cell-based", "settings": "UVA irradiation (365 nm) 15 min", "procedure": "as §4, §5"}, "[9]": {"target": "T1, IKZF1", "test": "In vivo ubiquitination assay of IKZF1 by CRBN in HEK293T cells (Ni-NTA pull down)", "format": "cell-based", "design": "expressed in transfected cells; host or cells: HEK293T", "settings": "UVA irradiation (365 nm) 15 min", "procedure": "Briefly, HEK293T cells were transfected with Flag-CRBN, His-ubiquitin and HA-IKZF1 or GFP-BRD2 or GFP-BRD3. 24 hours after transfection, pomalidomide, opto-pomalidomide, dBET1 or opto-dBET1 were added to the cell culture together with 10 μM MG132 for 12 hours and cells were harvested in denatured buffer A (6 M guanidine-HCl, pH 8.0, 0.1 M Na2HPO4/NaH2PO4, 10 mM imidazole). After sonication, the ubiquitinated proteins were purified by incubation with Ni-NTA matrices for 3 hours at room temperature. The pull-down products were washed sequentially twice in buffer A, twice in buffer ANTI mixture (buffer A: buffer TI=1:3) and once in buffer TI (25 mM Tris-HCl, pH 6.8, 20 mM imidazole). The poly-ubiquitinated proteins were separated by SDS-PAGE for immunoblot analysis."}},
  "note": "“Also recorded” adds a separate entry of the source.",
  "data": [
    {"molecule": "COc1cc(COC(=O)N2C(=O)CCC(N3C(=O)c4cccc(N)c4C3=O)C2=O)c([N+](=O)[O-])cc1OC", "note": "(stereo not drawn) [opto-pomalidomide, 4,5-dimethoxy-2-nitrobenzyl 3-(4-amino-1,3-dioxoisoindolin-2-yl)-2,6-dioxopiperidine-1-carboxylate]", "values": [
      {"measurement": "maximum in absorption of UV-VIS absorption spectrum", "setting": "[1]", "value": 364, "unit": "nm"},
      {"measurement": "uncaging (photolysis) by UVA irradiation in vitro", "setting": "[2]", "value": "could be induced to undergo photolysis by UVA irradiation in vitro"},
      {"measurement": "degradation of IKZF1/3", "setting": "[3]; MM1S cells, UVA irradiation (365 nm) for different durations", "value": "occurred in a drug-dose and UVA-dose dependent manner"},
      {"measurement": "degradation of IKZF1/3", "setting": "[3]; MM1S-CRBN+/+ vs. MM1S-CRBN−/− cells, 12 hours, without UVA irradiation, opto-drug up to 10-fold excess", "value": "lost this function without UVA irradiation"},
      {"measurement": "degradation of IKZF1", "setting": "[4]", "value": "mediate IKZF1 degradation in MT2 cells"},
      {"measurement": "binding with CRBN", "setting": "[5]; after UVA irradiation (365 nm, 30 min)", "value": "regained ability to bind with CRBN"},
      {"measurement": "binding with CRBN", "setting": "[5]; without UVA irradiation", "value": "ineffective to bind with CRBN in vitro"},
      {"measurement": "interaction between CRBN and IKZF1", "setting": "[6]; UVA irradiation (365 nm) 15 min", "value": "regained the ability to promote the binding between CRBN and IKZF 1"},
      {"measurement": "interaction between CRBN and IKZF1", "setting": "[6]; without UVA irradiation", "value": "ineffective in guiding the protein-protein interaction between CRBN and IKZF1"},
      {"measurement": "cell proliferation (CCK-8)", "setting": "[7]", "value": "largely dependent on UVA irradiation; also recorded: inhibits MM1S cell proliferation in a dose-dependent manner"},
      {"measurement": "cell proliferation (CCK-8)", "setting": "[8]", "value": "inhibits MT2 cell proliferation in a dose-dependent manner"},
      {"measurement": "ubiquitination of IKZF1 by CRBN", "setting": "[9]", "value": "leading to CRBN-mediated IKZF1 ubiquitination"}
    ]}
  ]
}
